Experiment [1] can be described thus: Inhibition of Very long-chain fatty acid elongase in Echinochloa crus-galli (barnyard grass). The conditions noted are these: read-out: I50.
Experiment [2] concerns Echinochloa crus-galli. Description: Inhibition of shoot elongation in Echinochloa crus-galli (barnyard grass). The experiment is classed as functional, organism-based.
Experiment [3] deals with Echinochloa crus-galli. The experiment can be described thus: Ratio of I50 for very long-chain fatty acid elongase in Echinochloa crus-galli (barnyard grass) to EC50 for shoot elongation inhibition in Echinochloa crus-galli (barnyard grass).

Take `CCOc1cc(Cl)c(CS(=O)(=O)C2=NOC(C)(C)C2)cc1Cl` [FENOXASULFONE]: the IC50 in experiment [1] was 300 nM. In addition, the EC50 – broadly, the concentration needed to bring the measured effect to its halfway point – in experiment [2] was found to be 30 nM. Moreover, in experiment [3], the Ratio was 10.

On to `Cn1nc(C(F)(F)F)c(CS(=O)(=O)C2=NOC(C)(C)C2)c1OC(F)F` [PYROXASULFONE], for which, in experiment [1], the IC50 was 300 nM. This molecule returned an EC50 in experiment [2] of 30 nM. Moreover, the Ratio in experiment [3] was 10.

The record behind these values is ChEMBL document CHEMBL3045099, “Action mechanism of isoxazoline-type herbicides” (J Pestic Sci, 2012).
